Measurements published in patent publication US20130245275A1, “PHENYL DIAMIDES AND A PHARMACEUTICAL PREPARATION COMPRISING PHENYL DIAMIDES” (Rheinische Friedrich-Wilhelms Universitaet Bonn, priority 2010, published 2013).
Entries after “also recorded” stand apart in the source; their conditions may differ.

Key:
[1] = molecular target: T1, sec7-domain of cytohesin-2 (ARNO) (Homo sapiens, UniProt Q99418); assay: guanine nucleotide exchange assay (GDP/GTP exchange on [Δ17]ARF1, tryptophan fluorescence); assay type: biochemical; conditions: isolated Sec-7 domain, each experiment at least 8 times, read-out: IC50 values measured for the isolated Sec-7 domain of cytohesin-2
T1 construct: ARNO-Sec7 (amino acids 50-255 of ARNO) were expressed in Escherichia coli; made in house; host or cells: Escherichia coli
T1 sequence (Q99418 50-255): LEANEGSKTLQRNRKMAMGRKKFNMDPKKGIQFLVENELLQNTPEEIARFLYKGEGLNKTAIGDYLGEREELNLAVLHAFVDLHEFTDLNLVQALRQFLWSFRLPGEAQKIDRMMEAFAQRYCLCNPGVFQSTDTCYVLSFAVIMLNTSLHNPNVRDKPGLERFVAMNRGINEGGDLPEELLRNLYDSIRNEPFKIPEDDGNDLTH
Description: The inhibition of the exchange activity of the sec7-domain of cytohesin-2 (ARNO) of the phenyl diamides according to formulas (5) to (18) was determined by a guanine nucleotide exchange assay.
The sec7-domain of cytohesin-2 (ARNO) and [Δ17]ARF1, a mutant of the ADP-ribosylation factor (ARF) protein, were subcloned into pET15 vectors (Novagen) as described in Hafner, M. et al. Nature 444, 941-944 (2006). N-terminal truncated [Δ17]ARF1 (amino acids 18-181), lacking the first 17 amino acids and ARNO-Sec7 (amino acids 50-255 of ARNO) were expressed in Escherichia coli and purified by Ni-NTA chromatography (Ni-NTA agarose, Qiagen).
The exchange from […] (GDP) to […] (GTP) induces a conformation change of the ribosylation factor, as a result of which the fluorescence of a tryptophan radical of the protein is increased. GDP/GTP exchange was measured on [Δ17]ARF1 by tryptophan fluorescence because a large increase in intrinsic fluorescence of ARF occurs upon exchange of GDP for GTP. All measurements were performed in PBS (137 mM NaCl, 2.7 mM KCl, 10.2 mM Na2HPO4, 1.8 mM KH2PO4) pH 7.4, 3 mM MgCl2 at 37° C.
[Δ17]ARF1 (1 μM) in PBS without MgCl2 was preincubated with 80 μM GDP in the presence of 2 mM ethylenediaminetetraacetic acid (EDTA) for 15 minutes. The bound GDP was stabilized by addition of MgCl2 at a final concentration of 3 mM and incubation for 5 minutes. For each exchange reaction 250 nM [Δ17]ARF1 was mixed with 10 nM ARNO-Sec7 (total volume 200 μl) in the absence or presence of the phenyl diamides according to formulas (5) to (18). The reaction was started by injection of 50 μM GTP.
The tryptophan fluorescence was measured at excitation and emission wavelength of 280 nm and 340 nm respectively. All fluorescent measurements were performed with a Varioskan microplate reader (Thermo Scientific), in 96-well plates. For analysis all data were fitted by linear regression.
The relative exchange rate was determined by comparing the initial linear rise of the fluorescence signal (exchange rate) in the presence of 2.5 μM of the phenyl diamides according to formulas (5) to (18) with the exchange rate in the presence of the solvent Dimethyl sulfoxide (DMSO), 0.4% end concentration, only. A further control was performed with the control compound according to formula (XH1009) as indicated below: […]
Further, the IC50 value of the inhibition of the sec7-domain of the isolated cytohesin-2 was determined. The IC50 value was determined by plotting the initial linear rise of the fluorescence signal against the added concentrations of the amide. The IC50 value corresponds to the concentration of the phenyl diamides at which the activity of the protein is reduced to half. The lower the IC50 value, the more strongly the phenyl diamide inhibits the sec7-domain.

U87 wt = assay: glioblastoma proliferation assay (MTT), U87 wt; assay type: cell-based; conditions: Homo sapiens, U87WT; for inhibition at 0.25 µM: 250 nM, 72 h, vs DMSO control, read-out: inhibitory effect on cell proliferation as compared to control; for IC50: 72 hours, at least 3 times, read-out: IC50 values of the inhibition of the proliferation in the cell line U87 wt
Description: (§1) The effect of the phenyl diamides according to formulas (5) to (18) on the proliferation of Glioblastoma cells was tested in two pairs of established human glioblastoma cell lines, Gli36 and U87. Human Gli36 wt, U87 wt and U87 EGFRvIII cells were a gift from Prof. Dr. Andreas H. Jacobs, European Institute for Molecular Imaging, Munster, Germany. The cells were maintained in DMEM (PAA) supplemented with 10% fetal calf serum (FCS, Lonza), 1% Penicillin/Streptomycin (PAA) and 110 μg/ml Sodiumpyruvat (Sigma-Aldrich) and were grown at 37° C., 5% CO2.
(§2) 3000 cells per 96 well were seeded into a clear, flat bottom 96 well plate (TPP). After 24 hours the cells were washed twice in 1×DPBS (PAA) and treated with 250 nM of the phenyl diamides according to formulas (5) to (18) in DMEM (PAA) supplemented with 1% FCS (Lonza), 1% Penicillin/Streptomycin (PAA) and 110 μg/ml Sodiumpyruvat (Sigma-Aldrich). Controls were treated with Dimethyl sulfoxide (DMSO) as solvent in an end concentration of 0.4% (v/v). A further control was performed with the control compound according to formula (XH1009). Medium was changed daily.
(§3) After 72 hours cell proliferation was quantified by using a commercially available 3-(4,5-dimethylthiazol-2-yl)-2,5diphenyltetrazolium bromide (MTT) assay (Cell Titer 96® Non-Radioactive Cell Proliferation Assay, Promega) as described in the manufacture's protocol. Briefly, 15 μl of Dye solution was added directly into the 100 μl media of the cells. After 4 hours incubation at 37° C., 5% CO2, 100 μl solubilization solution was added to solubilize the formazan product and the absorbance at 570 nm was measured in a Varioscan microplate reader (Thermo Scientific). All assays were performed at least in triplicates. For calculation of the relative proliferation rate/cell number the mean absorbance in the solvent DMSO only treated cells was set as 1. Results are given as the mean+/−standard error.
(§4) The FIGS. 2 and 3 show the relative cell numbers in the wild type glioblastoma cell line U87 wt (FIG. 2) and Gli36 wt (FIG. 3) normalized to the DSMO treated control after 72 h incubation with the respective phenyl diamides according to formulas (5) to (18), the DSMO treated control compound determined with a MTT proliferation essay. Data were normalized with the exchange in the solvent (DMSO) only control set as 1 and represent the mean values of duplicates, error bars correspond to standard error of the mean (SEM).
(§5) U87 wt and U87 EGFRvIII cells were a gift from Prof. Dr. Andreas H. Jacobs, European Institute for Molecular Imaging, Münster, Germany. The cells were maintained in DMEM (PAA) supplemented with 1% FCS (Lonza), 1% Penicillin/Streptomycin (PAA) and 110 μg/ml Sodiumpyruvat (Sigma-Aldrich) and were grown at 37° C., 5% CO2.
as §2, with “300” for “3000”, “concentrations ranging from 2.5” for “250”, “nM to 2 μM” for “nM”, “(18) or 5 μM of the control compound (XH1009)” for “(18)”, “(v/v).” for “(v/v). A further control was performed with the control compound according to formula (XH1009).”
(§6) Further, the IC50 values of the inhibition of the proliferation was determined. The IC50 value was determined by plotting the relative cell number against the added concentrations of the amide. The IC50 value corresponds to the concentration of the phenyl diamides at which the proliferation is reduced to half. The lower the IC50 value, the more strongly the phenyl diamide inhibits proliferation.

Gli36 wt = assay: glioblastoma proliferation assay (MTT), Gli36 wt; assay type: cell-based; conditions: Homo sapiens, 250 nM, 72 h, vs DMSO control, read-out: inhibitory effect on cell proliferation as compared to control
Description: as §1, §2, §3, §4

U87 EGFRvIII = assay: glioblastoma proliferation assay (MTT), U87 EGFRvIII; selectivity of the inhibition; assay type: cell-based, human; conditions: for IC50: Homo sapiens, U87 EGFRvIII, 72 hours, MTT, at least 3 times, read-out: IC50 values of the inhibition of the proliferation in the cell line U87 EGFRvIII; for selectivity of the inhibition of the EGFRvIII dependent cell proliferation: U87 EGFRvIII compared with parental U87 wt
Description: as §5
as §2, with “300” for “3000”, “concentrations ranging from 2.5” for “250”, “nM to 2 μM” for “nM”, “(18) or 5 μM of the control compound (XH1009)” for “(18)”, “(v/v).” for “(v/v). A further control was performed with the control compound according to formula (XH1009).”
as §3, §6

glioblastoma cells = assay: glioblastoma cell proliferation, cell line not stated (summary statements); assay type: cell-based; conditions: read-out: IC50 for the proliferation inhibition

Row | SMILES | IC50 [1] | inhibition at 0.25 µM (U87 wt) | IC50 (U87 wt) | inhibition at 0.25 µM (Gli36 wt) | IC50 (U87 EGFRvIII) | selectivity of the inhibition of the EGFRvIII dependent cell proliferation (U87 EGFRvIII) | inhibition of proliferation of EGFRvIII-cells relative to parental cell line (U87 EGFRvIII; U87 EGFRvIII vs parental U87 wt, FIG. 4B) | IC50 (glioblastoma cells)
1 | CC(C)(C)c1ccc(C(=O)Nc2ccc(NC(=O)c3ccccc3[N+](=O)[O-])cc2)cc1 [formula (5), N-{4-[(4-tert-butylbenzoyl)amino]phenyl}-2-nitrobenzamide] | 1180 nM | 30 to 50% | 168 nM | 30 to 50% | 46 nM | – | – | –
2 | CC(C)(C)c1ccc(C(=O)Nc2ccc(NC(=O)c3cccc(Cl)c3)cc2)cc1 [formula (6), N-{4-[(4-tert-butylbenzoyl)amino]phenyl}-3-chlorobenzamide] | 790 nM | 30 to 50% | 243 nM | 30 to 50% | 67 nM | – | – | –
3 | CC(C)(C)c1ccc(C(=O)Nc2ccc(NC(=O)c3ccc(Br)o3)cc2)cc1 [formula (7)] | 4570 nM | – | 1370 nM | – | 198 nM | selectively inhibited the proliferation of the U87 EGFRvIII-containing cell line; also recorded: selectivity for the mutation EGFR variant III (EGFRvIII) | – | –
4 | Cc1ccccc1C(=O)Nc1ccc(NC(=O)c2ccc(C(C)(C)C)cc2)cc1 [formula (8)] | 1190 nM | > 50% | 118 nM | > 50% | 148 nM | – | – | –
5 | CC(C)(C)c1ccc(C(=O)Nc2ccc(NC(=O)c3ccc(F)cc3)cc2)cc1 [formula (9)] | 2100 nM | 30 to 50% | 89 nM | 30 to 50% | 372 nM | – | – | –
6 | CC(C)(C)c1ccc(C(=O)Nc2ccc(NC(=O)c3ccc([N+](=O)[O-])cc3)cc2)cc1 [formula (10)] | 440 nM | > 50% | 28 nM | > 50% | 83 nM | selectivety for the inhibition of the parental U87 wt cell line | – | –
7 | CC(C)(C)c1ccc(C(=O)Nc2ccc(NC(=O)c3ccccc3Cl)cc2)cc1 [formula (11)] | 2580 nM | > 50% | 106 nM | > 50% | 126 nM | – | – | –
8 | Cc1ccc(C(=O)Nc2ccc(NC(=O)c3ccc(C(C)(C)C)cc3)cc2)c(C)c1 [formula (12)] | 1860 nM | – | 367 nM | – | 84 nM | – | – | –
9 | CC(C)(C)c1ccc(C(=O)Nc2ccc(NC(=O)c3ccncc3)cc2)cc1 [formula (13)] | 7270 nM | – | 2090 nM | – | 186 nM | selectively inhibits the EGFRvIII expressing U87 cell line; also recorded: selectively inhibited the proliferation of the U87 EGFRvIII-containing cell line; also recorded: selectivity for the mutation EGFR variant III (EGFRvIII) | more than 10 fold | –
10 | Cc1ccc(C(=O)Nc2ccc(NC(=O)c3ccc(C(C)(C)C)cc3)cc2)cc1 [formula (14)] | 1760 nM | > 50% | – | > 50% | – | – | – | –
11 | CC(C)(C)c1ccc(C(=O)Nc2ccc(NC(=O)c3ccccc3F)cc2)cc1 [formula (15)] | 1770 nM | – | – | – | – | – | – | –
12 | CC(C)(C)c1ccc(C(=O)Nc2ccc(NC(=O)/C=C/c3ccco3)cc2)cc1 [formula (16), 4-tert-butyl-N-[4-[[(E)-3-furan-2-ylprop-2-enoyl]amino]phenyl]-benzamide] | 3750 nM | – | 958 nM | – | 435 nM | no selectivety | – | –
13 | CC(C)(C)c1ccc(C(=O)Nc2ccc(NC(=O)c3ccc4c(c3)OCO4)cc2)cc1 [formula (17)] | 2690 nM | – | 922 nM | – | 224 nM | selectively inhibited the proliferation of the U87 EGFRvIII-containing cell line; also recorded: selectivity for the mutation EGFR variant III (EGFRvIII) | – | –
14 | CC(C)(C)c1ccc(C(=O)Nc2ccc(NC(=O)c3ccc4c(c3)OCCO4)cc2)cc1 [formula (18)] | 1340 nM | – | 297 nM | – | 105 nM | – | – | < 2000 nM
